We go through 38 compounds from patent US20260200893A1, “INHIBITORS OF PROCASPASE-6 ACTIVATION AND USES THEREOF” (THE REGENTS OF THE UNIVERSITY OF CALIFORNIA, priority 2022, published 2026).

As a reminder, the Kd is the concentration at which binding is half-saturated. Lower therefore signals a tighter complex.

In this experiment the target is T1, procaspase-6 (Homo sapiens, UniProt P55212).
T1 sequence (P55212 1-293): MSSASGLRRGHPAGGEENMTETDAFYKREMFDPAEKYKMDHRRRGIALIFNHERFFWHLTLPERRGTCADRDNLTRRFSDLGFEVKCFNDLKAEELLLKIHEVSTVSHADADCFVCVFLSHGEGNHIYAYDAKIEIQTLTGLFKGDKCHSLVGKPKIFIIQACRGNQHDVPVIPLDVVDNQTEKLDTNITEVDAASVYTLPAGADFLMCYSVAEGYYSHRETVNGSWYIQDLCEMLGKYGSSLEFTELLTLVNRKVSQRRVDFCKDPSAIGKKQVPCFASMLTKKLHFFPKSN
The experiment can be described thus: SPR binding affinity for procaspase-6 (avi-tagged, biotinylated construct on neutravidin chip, Biacore 8K). As to conditions: binding affinities for procaspase-6, SPR. The text has this:
We used SPR to assess the binding affinity of test compounds, using an avi-tagged (biotinylated) procaspase-6 construct that was captured onto a neutravidin-coated sensor chip in a Biacore 8K instrument. […] The average of the triplicate KD values for each analog was furthermore used to calculate the experimental binding energies (ΔG) provided in the figures that follow.
(In general: SPR reads the build-up and loss of mass on a sensor chip optically.)
In turn, `c1cnc(NCc2cccc3cn[nH]c23)c(-c2ncc[nH]2)c1` [ELG-000538, N-((1H-indazol-7-yl)methyl)-3-(1H-imidazol-2-yl)pyridin-2-amine] showed a Kd of 10 to 50 µM.
The result for `Fc1ccc(CNc2ncccc2-c2cccnn2)c2occc12` [ELG-000481, N-((4-fluorobenzofuran-7-yl)methyl)-3-(pyridazin-3-yl)pyridin-2-amine] reads 10 to 50 µM.
`c1cnc(NCc2cccc3cc[nH]c23)c(-c2ncc[nH]2)c1` [ELG-000523, N-((1H-indol-7-yl)methyl)-3-(1H-imidazol-2-yl)pyridin-2-amine] came in with a Kd of 10 to 50 µM.
`c1cnnc(-c2cccnc2NCc2cccc3scnc23)c1` [ELG-000507, N-(benzo[d]thiazol-4-ylmethyl)-3-(pyridazin-3-yl)pyridin-2-amine]: the Kd is < 10 µM.
`c1cnnc(-c2cccnc2NCc2cccc3ccoc23)c1` [ELG-000488, N-(benzofuran-7-ylmethyl)-3-(pyridazin-3-yl) pyridin-2-amine]: the equilibrium dissociation constant (Kd) lay within 10 to 50 µM.
`c1cnnc(-c2cccnc2NCc2cccc3ocnc23)c1` [ELG-000491, N-(benzo[d]oxazol-4-ylmethyl)-3-(pyridazin-3-yl)pyridin-2-amine]: the Kd is < 10 µM.
With `Fc1ccc(CNc2ncccc2-c2cccnn2)c2[nH]ccc12` [ELG-000504, N-((4-fluoro-1H-indol-7-yl)methyl)-3-(pyridazin-3-yl)pyridin-2-amine], the Kd is < 10 µM.
The result for `c1cnc(NCc2cccc3cnsc23)c(-c2ncc[nH]2)c1` [ELG-000558] reads 50 to 100 µM; that for `Fc1ccc(CNc2ncccc2-c2cccnn2)c2ncsc12` [ELG-000522, N-((7-fluorobenzo[d]thiazol-4-yl)methyl)-3-(pyridazin-3-yl)pyridin-2-amine], < 10 µM; that for `Fc1ccc(CNc2ncccc2-c2ccccn2)c2[nH]ccc12` [ELG-000483], 50 to 100 µM.
`c1ccc(-c2cccnc2NCc2cccc3ocnc23)nc1` [ELG-000497] had an equilibrium dissociation constant (Kd) of 50 to 100 µM.
The result for `Fc1ccc(CNc2ncccc2-c2ncc[nH]2)c2[nH]ccc12` [ELG-000536, N-((4-fluoro-1H-indol-7-yl)methyl)-3-(1H-imidazol-2-yl)pyridine-2-amine] reads 10 to 50 µM; that for `c1ccc(-c2cccnc2NCc2cccc3cnoc23)nc1` [ELG-000567, N-(benzo[d]isoxazol-7-ylmethyl)-[2,3′-bipyridin]-2′-amine], 50 to 100 µM.
The result for `c1ccc(-c2cccnc2NCc2cccc3ccoc23)nc1` [ELG-000468, N-(benzofuran-7-ylmethyl)-[2,3′-bipyridin]-2′-amine] reads 50 to 100 µM.
In the case of `c1ccc(-c2cccnc2NCc2cccc3ccsc23)nc1` [ELG-000510, N-(benzo[b]thiophen-7-ylmethyl)-[2,3′-bipyridin]-2′-amine], the Kd was 50 to 100 µM.
`c1cnnc(-c2cccnc2NCc2cccc3cnsc23)c1` [ELG-000559]: the Kd was 50 to 100 µM.
`Fc1ccc(CNc2ncccc2-c2ncc[nH]2)c2sncc12` [ELG-000548]: the Kd lay within 50 to 100 µM.
The result for `c1cnc(NCc2cccc3scnc23)c(-c2ncc[nH]2)c1` [ELG-000531, N-(benzo[d]thiazol-4-ylmethyl)-3-(1H-imidazol-2-yl)pyridin-2-amine] reads 50 to 100 µM.
The result for `Fc1ccc(CNc2ncccc2-c2ccccn2)c2sncc12` [ELG-000549, N-((4-fluorobenzo[d]isothiazol-7-yl)methyl)-[2,3′-bipyridin]-2′-amine] reads > 100 µM; that for `c1cnc(NCc2cccc3ccoc23)c(-c2ncc[nH]2)c1` [ELG-000535], 50 to 100 µM; that for `c1cnc(NCc2cccc3ccsc23)c(-c2ncc[nH]2)c1` [ELG-000534, N-(benzo[b]thiophen-7-ylmethyl)-3-(1H-imidazol-2-yl)pyridin-2-amine], > 100 µM.
For the compound `Fc1ccc(CNc2ncccc2-c2ncc[nH]2)c2sccc12` [ELG-000530, N-((4-fluorobenzo[b]thiophen-7-yl)methyl)-3-(1H-imidazol-2-yl)pyridin-2-amine], the Kd lay within 10 to 50 µM.
Turning to `c1ccc(-c2cccnc2NCc2cccc3scnc23)nc1` [ELG-000511], the Kd lay in the range of 50 to 100 µM.
For `Fc1ccc(CNc2ncccc2-c2cccnn2)c2[nH]ncc12` [ELG-000506, N-((4-fluoro-1H-indazol-7-yl)methyl)-3-(pyridazin-3-yl)pyridin-2-amine], the Kd is < 10 µM.
The compound `c1ccc(-c2cccnc2NCc2cccc3cc[nH]c23)nc1` [ELG-000463] had a Kd of 50 to 100 µM.
The compound `Fc1ccc(CNc2ncccc2-c2ccccn2)c2occc12` [ELG-000469, N-((4-fluorobenzofuran-7-yl)methyl)-[2,3′-bipyridin]-2′-amine] displayed a Kd of 50 to 100 µM.
In turn, `c1cnc(NCc2cccc3cnoc23)c(-c2ncc[nH]2)c1` [ELG-000560, N-(benzo[d]isoxazol-7-ylmethyl)-3-(1H-imidazol-2-yl)pyridin-2-amine] came in with a Kd of 10 to 50 µM.
The result for `Fc1ccc(CNc2ncccc2-c2cccnn2)c2sncc12` [ELG-000532, N-((4-fluorobenzo[d]isothiazol-7-yl)methyl)-3-(pyridazin-3-yl)pyridin-2-amine] reads 10 to 50 µM; that for `c1cnnc(-c2cccnc2NCc2cccc3ccsc23)c1` [ELG-000502, N-(benzo[b]thiophen-7-ylmethyl)-3-(pyridazin-3-yl)pyridin-2-amine], 10 to 50 µM.
Compound `c1ccc(-c2cccnc2NCc2cccc3cn[nH]c23)nc1` [ELG-000472, N-((1H-indazol-7-yl)methyl)-[2,3′-bipyridin]-2′-amine] displayed a Kd of 50 to 100 µM.
On to `Fc1ccc(CNc2ncccc2-c2ccccn2)c2sccc12` [ELG-000518], for which the Kd fell in the range of 50 to 100 µM.
`c1cnc(NCc2cccc3ocnc23)c(-c2ncc[nH]2)c1` [ELG-000537, N-(benzo[d]oxazol-4-ylmethyl)-3-(1H-imidazol-2-yl)pyridin-2-amine] gave a Kd of 50 to 100 µM.
`c1ccc(-c2cccnc2NCc2cccc3cnsc23)nc1` [ELG-000552, N-(benzo[d]isothiazol-7-ylmethyl)-[2,3′-bipyridin]-2′-amine] came in with a Kd of 50 to 100 µM.
Take `Fc1ccc(CNc2ncccc2-c2ncc[nH]2)c2ncsc12` [ELG-000526, N-((7-fluorobenzo[d]thiazol-4-yl)methyl)-3-(1H-imidazol-2-yl)pyridin-2-amine]: the Kd lay in the range of 10 to 50 µM.
As for `Fc1ccc(CNc2ncccc2-c2ccccn2)c2[nH]ncc12` [ELG-000499, N-((4-fluoro-1H-indazol-7-yl)methyl)-[2,3′-bipyridin]-2′-amine], the Kd was < 10 µM.
Regarding `Fc1ccc(CNc2ncccc2-c2ncc[nH]2)c2[nH]ncc12` [ELG-000525, N-((4-fluoro-1H-indazol-7-yl)methyl)-3-(1H-imidazol-2-yl)pyridin-2-amine], the Kd is < 10 µM.
Regarding `Fc1ccc(CNc2ncccc2-c2cccnn2)c2sccc12` [ELG-000515, N-((4-fluorobenzo[b]thiophen-7-yl)methyl)-3-(pyridazin-3-yl)pyridin-2-amine], the Kd was < 10 µM.
For the compound `c1cnnc(-c2cccnc2NCc2cccc3cnoc23)c1` [ELG-000563], the Kd lay in the range of 50 to 100 µM.
